# Earlier results in patent publication US6372707B1, “Cleaning compositions” (Lever Brothers Company, division of Conopco, Inc., priority 1997, dated 2002).
# Conditions: for Water Solubility (g/100 g): grams of solid to form a saturated solution in 100 grams of water at 20° C.
SMILES,Water Solubility (g/100 g),solubility in water (at 20° C.)
O=BO[O-].[Na+] [Sodium perborate anhydrous],3.7,
O=P(O)(O)OP(=O)(O)OP(=O)(O)O [Sodium tripolyphosphate anhydrous],15,
NC(N)=O [Urea],>100,exceeding 100 gms per 100 ml water
